Measurements taken from ChEMBL document CHEMBL1148138, “New eremophilenolides from Ligulariopsis shichuana” (2002).

Assays:
[1] = test system: Escherichia coli; assay: Antibacterial activity against Escherichia coli at 100 ug/mL after 24 hrs by cup-plate method; assay type: functional; details: read-out: Diameter of inhibition zone
[2] = test system: Bacillus subtilis; assay: Antibacterial activity against Bacillus subtilis at 100 ug/mL after 24 hrs by cup-plate method; assay type: functional; details: read-out: Diameter of inhibition zone

SMILES: CC(C)=CC(=O)O[C@H]1C[C@H]2O[C@]23C[C@@]2(O)OC(=O)C(C)=C2C[C@]3(C)[C@H]1C
- zone of inhibition at 100 µg/mL [1]: 13 mm
- zone of inhibition at 100 µg/mL [2]: 16 mm

SMILES: O=C(N[C@H](CO)[C@H](O)c1ccc([N+](=O)[O-])cc1)C(Cl)Cl [CHLORAMPHENICOL]
- zone of inhibition at 100 µg/mL [1]: 16 mm
- zone of inhibition at 100 µg/mL [2]: 16 mm

SMILES: C/C=C(/C)C(=O)O[C@@H]1[C@@]23O[C@@H]2C[C@H](OC(C)=O)[C@H](C)[C@@]3(C)CC2=C(C)C(=O)O[C@@]21O
- zone of inhibition at 100 µg/mL [1]: 13 mm
- zone of inhibition at 100 µg/mL [2]: 13 mm
